Measurements taken from US5410052A, “Symmetrical and unsymmetrical polyalkylamine metal complexes for ligand extraction and generation” (The Regents of the University of California, priority 1990, dated 1995).
Like-named read-outs stand apart in the source and are kept apart here.

Assays:
[1] = UV-visible spectroscopic evaluation of oxygen complex formation by cobalt carrier compounds; assay type: binding
Description: Initially, solutions of particular carrier compounds are monitored by UV-visible spectroscopy to determine whether the carrier compound forms oxygen complexes of sufficient stability as to be potentially useful in processes according to the present invention. UV-visible spectra of carrier compounds are also observed as a function of the pH to determine the pH range, if any, over which the carrier compounds bind oxygen without decomposition. The initial pH for use in further experiments (the "Working pH") is defined as one pH unit above that at which the proportion of carrier compound-oxygen complex is about 90% or more of the maximum formed under ca. 0.2 atm oxygen, as determined by this spectroscopic examination. […] An initial working pH can also be determined from potentiometric experiments on the oxygen complexes of cobalt carrier compounds, as will be discussed below.
The necessary UV and visible spectra necessary for this evaluation are obtained with any of a variety of commercially available spectrophotometers. The solution to be measured is prepared in or transferred to a suitable quartz cell with provision for the exclusion of oxygen. […] Spectra are then recorded under both oxygen free and oxygenated conditions at each of the desired pH values.

[2] = design: key to Log K02 (symbol): *: Oxygen complex is unstable.; **: No oxygen complex observed; conditions: cobalt complex, literature, cited from earlier work; for Log K02: dimeric oxygen complex, Ref. 1 or 4
[3] = Potentiometric pH titration of polyalkylamines: protonation constants (basicity); assay type: physicochemical; conditions: 25°±0.1° C., ca. 1.5 mM PAA; Ref. 3 determined by applicants
Description: the equilibrium constants for successive protonations of the PAA compounds are defined by
KHi =[PAA(H^+)i ]/[PAA(H^+)i-1 ] [H^+ ](10)
Where spectrophotometric characterization of a particular cobalt carrier compound has proven satisfactory, both the polyalkylamine and the cobalt carrier compound are characterized by a set of potentiometric pH titrations to determine the basicity of the ligating atoms, the formation constants KML and KMLH, and the apparent oxygen binding equilibrium constants.
Potentiometric titrations are performed using a Fisher or Cole-Palmer pH meter in a sealed, jacketed glass cell equipped with glass and calomel electrodes and with provisions for performing measurements under oxygen-free conditions. The cell is kept at a constant temperature of 25°±0.1° C. by circulating water from a thermostated bath through the cell jacket. The electrodes and pH meter are standardized with commercially available standard buffer solutions (Fisher Scientific). The polyalkylamine ligands and cobalt carrier compounds were each titrated potentiometrically by incrementally adding standard potassium hydroxide solution and recording the pH of the solution after each addition of base. Titrations of the cobalt carrier compounds are carried out under prepurified nitrogen or argon; titrations of oxygenated carrier compounds are performed under oxygen treated with Ascarite to remove carbon dioxide.
All solutions contained ca. 1.5 mM PAA; for titrations of cobalt complexes, the solutions contained, in addition, 1.5 mM CoCl2.
Typical results obtained as outlined above from pH titrations of selected polyalkylamines, cobalt carrier compounds, and oxygen complexes of cobalt carrier compounds are graphically depicted in FIGS. 2, 3, and 4, and summarized in Table III. The values shown in Table III, defined by equations (6)-(8) and (10). above, were derived either by direct measurement from the titration curves obtained, or determined by the iterative best fit of the data to a computer program such as that described by Harris, et al., Inorganic Chemistry, vol. 17, p. 889, 890 (1978). Generally, although the latter values are considered to be more reliable, values obtained by either methods are approximately the same and sufficient for the present evaluation.

[4] = literature, Ref. 1, 2 or 4; cited from earlier work
[5] = Cyclic voltammetry of Co(PAA)n+ carrier compounds; assay type: physicochemical; design: key to ΔE / EPA / EPC: N.O.: not observed due to low electrochemical activity
Experimental: Cyclic voltammentry experiments were performed under nitrogen or iar for the unoxygenated or oxygenated carrier compounds, respectively, in a cell having a platinum wire auxiliary electrode, a silver-silver chloride reference electrode, and suitable working electrode. The potential between the auxiliary and working electrodes was varied with a Princeton Applied Research (Princeton, N.J.) Scanning Potentiostate at 50 mV/s from a suitable initial with a suitable initial scan direction (Scan Dir.), depending on the electrochemical potentials if interest. All solutions contained 1 mM CoCl2, 1 mM or 1.5 mM PAA, and a supporting electrolyte, and were buffered to a suitable pH, usually about the initial working pH.
Cyclic voltammetry enables the estimation of anode (EPA) and cathode (EPC) half cell potentials, the cell potential ΔE=(EPA -EPC), and an approximate formal reaction potential […]. In addition, estimates of the rate of electron transfer to a particular electrode and electrochemical reversibility of the reaction can be obtained.

[6] = deox, 1.5 mM PAA, pH 9.0, 0.5M NaCl/0.1M Borate, glassy carbon, Einitial -0.3 V, scan +
[7] = ox, 1.5 mM PAA, pH 9.0, 0.5M NaCl/0.1M Borate, glassy carbon, Einitial -0.3 V, scan +
[8] = deox, 1.5 mM PAA, pH 3.0, 0.5M KCl/0.1M K2HPO4, gold, Einitial -0.3 V, scan +
[9] = ox, 1.0 mM PAA, pH 9.0, 0.5M NaCl/0.1M Borate, gold, Einitial +0.12 V, scan +
[10] = ox, 1.0 mM PAA, pH 6.0, 0.5M KCl/0.1M K2HPO4, glassy carbon, Einitial +0.1 V, scan +
[11] = deox, 1.0 mM PAA, pH 7.6, 0.5M NaCl/0.1M K2HPO4, gold, Einitial -0.3 V, scan +
[12] = ox, 1.0 mM PAA, pH 7.6, 0.5M KCl/0.1M K2HPO4, gold, Einitial +0.3 V, scan +
[13] = ox, 1.0 mM PAA, pH 3.0, 0.5M KCl/0.1M K2HPO4, glassy carbon, Einitial -0.05 V, scan +
[14] = deox, 1.0 mM PAA, pH 5.93, 0.5M KCl/0.1M K2HPO4, glassy carbon, Einitial +0.1 V, scan +
[15] = ox, 1.0 mM PAA, pH 5.93, 0.5M KCl/0.1M K2HPO4, glassy carbon, Einitial +0.1 V, scan +
[16] = ox, 1.0 mM PAA, pH 12.0, 0.5M KCl/0.1M K2HPO4, glassy carbon, Einitial +0.19 V, scan -
[17] = deox, 1.0 mM PAA, pH 10.1, 0.5M KCl/0.1M K2HPO4, glassy carbon, Einitial +0.15 V, scan -
[18] = ox, 1.0 mM PAA, pH 10.1, 0.5M KCl/0.1M K2HPO4, glassy carbon, Einitial +0.1 V, scan +

| Log K1 [3] | Log K2 [3] | Log K3 [3] | Log K4 [3] | Compound | Log K1 [4] | Log K2 [4] | Log K3 [4] | Log K4 [4] | Log K02 [2] | further results |
| --- | --- | --- | --- | --- | --- | --- | --- | --- | --- | --- |
|  |  |  |  | c1ccc(CNCc2cccc(CNCc3ccccn3)n2)nc1 [PAA No. 21, 2,6-Bis(l-(3-(2-Pyridyl)-2-Azapropyl))Pyridine] |  |  |  |  |  | oxidation of the cobalt ion of the Co(II) complex ([1]; Co(II) complex of the PAA): relatively rapid, irreversible oxidation of the cobalt ion to Co(III) |
|  |  |  |  | CN(CCCNCc1ccccn1)CCCNCc1ccccn1 [PAA No. 76, 1,11-Bis(2-Pyridyl)-6-Methyl-2,6,10-Triazaundecane] |  |  |  |  |  | oxygen binding of the cobalt complex ([1]; cobalt complex of the PAA, spectrophotometric analysis, under conditions of interest): does not appear to bind oxygen |
| 7.74 | 6.69 | 2.95 |  | c1ccc(CNCc2cccc(CNCc3ccccn3)n2)nc1 [compound 21] | 7.55 | 6.86 | 3.2 | 2.9 |  | Log K02 (symbol) ([2]; Ref. 2): * |
|  |  |  |  | NCCNCCNCCNCCN [compound 33] | 9.85 | 9.27 | 8.19 | 5.08 | 15.83 | EPA [5, 6]: -0.33 V; EPC [5, 6]: -0.45 V; E° [5, 6]: -0.39 V; ΔE [5, 6]: 0.12 V; EPA [5, 7]: 0.7 V; EPC [5, 7]: -0.5 V; ΔE [5, 7]: 1.2 V; Log K5 [4]: 3.43 |
| 8.91 | 6.95 | 3.64 |  | c1ccc(CNCCNCCNCc2ccccn2)nc1 [compound 62] | 8.88 | 7.04 | 3.82 | 1.44 | 11.4 | EPA [5, 8]: 0.0 V; EPC [5, 8]: -0.1 V; E° [5, 8]: -0.05 V; ΔE [5, 8]: 0.1 V; EPA [5, 9]: 0.75 V; EPC [5, 9]: -0.55 V; ΔE [5, 9]: 1.3 V |
| 8.75 | 7.61 | 3.81 |  | c1ccc(CCNCc2cccc(CNCCc3ccccn3)n2)nc1 [compound 63] |  |  |  |  |  | EPA [5, 10]: N.O.; EPC [5, 10]: N.O.; ΔE [5, 10]: N.O. |
| 9.54 | 7.44 | 6.34 |  | c1ccc(CNCCCNCCCNCc2ccccn2)nc1 [compound 64] | 9.92 | 7.63 | 6.76 | 1.79 | 7.7 | EPA [5, 11]: 0.4 V; EPC [5, 11]: -0.45 V; E° [5, 11]: -0.05 V; ΔE [5, 11]: 0.85 V; EPA [5, 12]: 0.08 V; EPC [5, 12]: -0.4 V; ΔE [5, 12]: 1.2 V |
| 9.31 | 8.6 | 5.9 | 4.74 | NCCNCc1cccc(CNCCN)n1 [compound 69] |  |  |  |  |  | EPA [5, 13]: 0.5 V; EPC [5, 13]: -0.2 V; ΔE [5, 13]: 0.7 V |
| 8.6 | 6.75 | 4.76 |  | c1ccc(CNCCCNCCNCc2ccccn2)nc1 [compound 72] |  |  |  |  |  | EPA [5, 14]: 0.03 V; EPC [5, 14]: 0.66 V; E° [5, 14]: -0.02 V; ΔE [5, 14]: 0.11 V; EPA [5, 15]: 0.66 V; EPC [5, 15]: -0.07 V; ΔE [5, 15]: 0.73 V |
|  |  |  |  | c1c[nH]c(CNCCCNCCCNCc2ncc[nH]2)n1 [compound 73] | 9.76 | 7.22 | 6.51 | 3.92 | 8.63 | Log K5 [4]: 3.29 |
| 9.75 | 8.58 | 7.2 | 4.75 | c1nc(CNCCCNCCCNCc2c[nH]cn2)c[nH]1 [compound 74] | 10.12 | 8.62 | 7.36 | 4.51 | 9.49 | Log K5 [3]: 3.75; Log K5 [4]: 3.82 |
| 9.15 | 8.03 | 4.92 | 3.91 | c1nc(CNCCNCCNCc2c[nH]cn2)c[nH]1 [compound 75] | 9.22 | 8.18 | 4.91 | 3.90 |  | Log K5 [4]: 2.92 |
| 9.15 | 7.20 | 5.79 | 3.40 | CN(CCCNCc1ccccn1)CCCNCc1ccccn1 [compound 76] |  |  |  |  |  | EPA [5, 16]: 0.25 V; EPC [5, 16]: -0.35 V; ΔE [5, 16]: 0.6 V |
| 9.36 | 7.69 | 6.60 |  | c1ccc(CNCCCCNCCCNCc2ccccn2)nc1 [compound 78] |  |  |  |  |  | EPA [5, 17]: 0.18 V; EPC [5, 17]: 0.1 V; E° [5, 17]: 0.14 V; ΔE [5, 17]: 0.08 V; EPA [5, 18]: 0.185 V; EPC [5, 18]: 0.055 V; E° [5, 18]: 0.12 V; ΔE [5, 18]: 0.13 V |
| 8.52 | 6.72 | 4.1 | 3.28 | Cc1cccc(CNCCNCCNCc2cccc(C)n2)n1 [compound 80] |  |  |  |  |  | Log K5 [3]: 2.86 |
| 9.44 | 7.40 | 6.25 | 3.40 | Cc1cccc(CNCCCNCCCNCc2cccc(C)n2)n1 [compound 81] |  |  |  |  |  |  |
